Values of other authors in patent US9371350B2, “Trehalose derivatives and pharmaceutical compositions for treating neurodegenerative diseases” (POSTECH ACADEMY-INDUSTRY FOUNDATION, priority 2008, dated 2016).

Assays:
[1] = system: polyglutamine-induced aggregate formation; details: in vivo mouse model, literature report
[2] = background, literature report

| Compound | inhibition of polyglutamine-induced aggregate formation [1] | passage through the BBB to the brain [2] |
| --- | --- | --- |
| OC[C@H]1O[C@H](O[C@H]2O[C@H](CO)[C@@H](O)[C@H](O)[C@H]2O)[C@H](O)[C@@H](O)[C@@H]1O [trehalose] | efficiently inhibit | cannot pass through the BBB |
| O[C@H]1[C@H](O)[C@@H](O)[C@H](O)[C@@H](O)[C@H]1O [inositol] | – | difficulty in passing through the blood-brain barrier |
